The source of these data is article PMC4396868 (Birth defects research. Part A, Clinical and molecular …, 2014).

The target in the assay is bovine folate binding protein (bFBP) (Bos taurus, UniProt P02702). The experiment in a line: competitive binding ELISA, displacement of folic acid-HRP, chemiluminescence. In general terms: An ELISA detects its analyte on a solid surface through an enzyme-linked reagent.

Structures are written as SMILES.

bovine folate binding protein (bFBP), sequence (P02702 20-234): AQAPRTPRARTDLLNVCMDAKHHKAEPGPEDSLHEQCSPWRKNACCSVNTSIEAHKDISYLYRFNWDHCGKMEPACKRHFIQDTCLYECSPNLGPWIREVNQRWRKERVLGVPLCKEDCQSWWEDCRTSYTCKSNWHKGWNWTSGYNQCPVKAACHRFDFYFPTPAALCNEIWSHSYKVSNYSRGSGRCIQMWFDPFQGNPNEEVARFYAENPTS

In general, IC50 refers to the midpoint of a concentration-inhibition curve. A low value points to higher potency. `CCCC(CCC)C(=O)O` [Valproic acid] showed an IC50 of 269 mM.
